Laboratory results reported in patent publication US20130345177A1, “Oleyl Phosphocholine for the Treatment of Mycosis” (DAFRA PHARMA RESEARCH & DEVELOPMENT BVBA, priority 2011, published 2013).
Values after ≈ are worked out from the molar mass of the structure shown.

What was measured:
Candida yeast = conditions: patients with culture-proven candidemia; cited from earlier work
[1] = test system: Candida glabrata IHEM 19371 (clinical blood isolate); experiment: CLSI broth dilution antifungal susceptibility (microplates); assay type: cell-based; conditions: 48 hours of incubation; for MIC100 (48 h): inhibits growth of 100%; for MIC50: Nakaseomyces glabratus, inhibits growth of 50%
Experimental: (§1) The above strains were contacted with oleyl phosphocholine on microplates and the anti-fungal activity of oleyl phosphocholine was determined. In comparison, the same test was performed using amphotericin B (AMB), voriconazole (VRZ) and itraconazole (ITR). The test protocol used was in conformity with the standard CLSI method: Clinical and Laboratory Standards Institute/National Committee for Clinical Laboratory Standards (2002) Reference method for broth dilution antifungal susceptibility testing of yeasts. […] Clinical and Laboratory Standards Institute/National Committee for Clinical Laboratory Standards Institute, Wayne Pa. Clinical and Laboratory Standards Institute/National Committee for Clinical Laboratory Standards. (2002) Reference method for broth dilution antifungal susceptibility testing of filamentous fungi. Approved Standard document M38-A. Clinical and Laboratory Standards Institute/National Committee for Clinical Laboratory Standards Institute, Wayne […]

[2] = test system: Aspergillus niger IHEM 5788 (ATCC 10864); experiment: as above; assay type: cell-based; conditions: for MIC100 (48 h): 48 hours of incubation; for MIC: ATCC10864, 48 hours of incubation, read-out: MIC100 (48 h)
Experimental: as §1

[3] = test system: Candida krusei IHEM 9560 (ATCC 6258); experiment: as above; assay type: cell-based; conditions: for MIC100 (48 h): 48 hours of incubation, inhibits growth of 100%; for MIC50: Pichia kudriavzevii, ATCC6258, 48 hours of incubation, inhibits growth of 50%
Experimental: as §1

[4] = test system: Candida albicans IHEM 3731 (ATCC 10231); experiment: as above; assay type: cell-based; conditions: for MIC100 (48 h): 48 hours of incubation, inhibits growth of 100%; for MIC50: ATCC10231, 48 hours of incubation, inhibits growth of 50%
Experimental: as §1

[5] = test system: Fusarium solani IHEM 18489 (clinical isolate); experiment: as above; assay type: cell-based; conditions: 48 hours of incubation; for MIC: read-out: MIC100 (48 h)
Experimental: as §1

[6] = test system: Scedosporium prolificans IHEM 22387 (clinical blood isolate); experiment: as above; assay type: cell-based; conditions: 48 hours of incubation; for MIC: Lomentospora prolificans, read-out: MIC100 (48 h)
Experimental: as §1

[7] = test system: Aspergillus terreus IHEM 13669 (clinical isolate); experiment: as above; assay type: cell-based; conditions: 48 hours of incubation; for MIC: read-out: MIC100 (48 h)
Experimental: as §1

[8] = test system: Aspergillus fumigatus IHEM 18963 (NCPF 7367); experiment: as above; assay type: cell-based; conditions: for MIC100 (48 h): 48 hours of incubation; for MIC: NCPF7367, 48 hours of incubation, read-out: MIC100 (48 h)
Experimental: as §1

[9] = test system: Candida parapsilosis IHEM 3270 (ATCC 22019); experiment: as above; assay type: cell-based; conditions: for MIC100 (48 h): 48 hours of incubation, inhibits growth of 100%; for MIC50: Lodderomyces parapsilosis, ATCC22019, 48 hours of incubation, inhibits growth of 50%
Experimental: as §1

[10] = test system: Candida albicans IHEM 19114 (clinical blood isolate resistant for voriconazole and itraconazole); experiment: as above; assay type: cell-based; conditions: Candida albicans IHEM 19114 (resistant), 48 hours of incubation; for MIC100 (48 h): inhibits growth of 100%; for MIC50: inhibits growth of 50%
Experimental: The following ten strains were tested for assaying the anti-fungal activity of oleyl phosphocholine.
The above strains were contacted with oleyl phosphocholine on microplates and the anti-fungal activity of oleyl phosphocholine was determined. In comparison, the same test was performed using amphotericin B (AMB), voriconazole (VRZ) and itraconazole (ITR).
The test protocol used was in conformity with the standard CLSI method:
Clinical and Laboratory Standards Institute/National Committee for Clinical Laboratory Standards (2002) Reference method for broth dilution antifungal susceptibility testing of yeasts. Approved Standard document M27-A2. Clinical and Laboratory Standards Institute/National Committee for Clinical Laboratory Standards Institute, Wayne Pa. Clinical and Laboratory Standards Institute/National Committee for Clinical Laboratory Standards. (2002) Reference method for broth dilution antifungal susceptibility testing of filamentous fungi. Approved Standard document M38-A. Clinical and Laboratory Standards Institute/National Committee for Clinical Laboratory Standards Institute, Wayne
The results, after visual and spectrophometric reading after 48 hours of incubation, are presented as MIC50 and MIC 100, i.e. the minimum inhibitory concentration required inhibiting the growth of 50% or 100% of the microorganisms, respectively.

[11] = people taking itraconazole; cited from earlier work
[12] = test system: Fusarium solani IHEM22128; experiment: In vitro efficacy against yeasts and fungi (microplates); assay type: cell-based
Experimental: (§2) The above strains were contacted oleyl phosphocholine on microplates and the anti-fungal activity of oleyl phosphocholine was determined. Anti-fungal activity was expressed as IC50, i.e. the concentration oleyl phosphocholine needed to kill 50% of the pathogens.

[13] = test system: Trichophyton rubrum B68183; experiment: as above; assay type: cell-based
Experimental: as §2

Candida albicans = experiment: as above; assay type: cell-based; conditions: concentration needed to kill 50% of the pathogens
Experimental: as §2

[14] = test system: Candida albicans B59630 (R); experiment: as above; assay type: cell-based
Experimental: as §2

[15] = test system: Candida parapsilosis B66126; experiment: as above; assay type: cell-based
Experimental: as §2

[16] = test system: Candida albicans B63195 (S); experiment: as above; assay type: cell-based
Experimental: as §2

[17] = test system: Fusarium oxysporum IHEM3014; experiment: as above; assay type: cell-based
Experimental: as §2

Aspergillus fumigatus = experiment: as above; assay type: cell-based
Experimental: as §2

Sporothrix schenkii = experiment: as above; assay type: cell-based
Experimental: as §2

[18] = test system: Aspergillus fumigatus B19119; experiment: as above; assay type: cell-based
Experimental: as §2

Microsporum canis = experiment: as above; assay type: cell-based
Experimental: as §2

[19] = test system: Sporothrix schenkii B62482; experiment: as above; assay type: cell-based
Experimental: as §2

[20] = test system: Aspergillus fumigatus B42928; experiment: as above; assay type: cell-based
Experimental: as §2

[21] = test system: Trichophyton mentagrophytes B70554; experiment: as above; assay type: cell-based
Experimental: as §2

Cryptococcus neoformans = experiment: as above; assay type: cell-based
Experimental: as §2

Trichophyton rubrum = experiment: as above; assay type: cell-based
Experimental: as §2

[22] = test system: Cryptococcus neoformans B66663; experiment: as above; assay type: cell-based
Experimental: as §2

MIC50 [1] [mg/L]	MIC [2] [mg/L]	MIC50 [3] [mg/L]	MIC50 [4] [mg/L]	MIC [5] [mg/L]	MIC [6] [mg/L]	MIC [7] [mg/L]	MIC [8] [mg/L]	MIC50 [9] [mg/L]	MIC50 [10] [mg/L]	Compound	MIC100 (48 h) [1] [mg/L]	MIC100 (48 h) [2] [mg/L]	MIC100 (48 h) [3] [mg/L]	MIC100 (48 h) [4] [mg/L]	MIC100 (48 h) [5] [mg/L]	MIC100 (48 h) [6] [mg/L]	MIC100 (48 h) [7] [mg/L]	MIC100 (48 h) [8] [mg/L]	MIC100 (48 h) [9] [mg/L]	MIC100 (48 h) [10] [mg/L]	also measured
–	–	–	–	–	–	–	–	–	–	C[C@@H]1[C@H](O)[C@@H](C)/C=C/C=C/C=C/C=C/C=C/C=C/C=C/[C@H](O[C@@H]2O[C@H](C)[C@@H](O)[C@H](N)[C@@H]2O)C[C@@H]2O[C@](O)(C[C@@H](O)C[C@@H](O)[C@H](O)CC[C@@H](O)C[C@@H](O)CC(=O)O[C@H]1C)C[C@H](O)[C@H]2C(=O)O [AMB, amphotericin B]	0.5 (≈ 0.541 µM)	1 (≈ 1.08 µM)	1 (≈ 1.08 µM)	0.5 (≈ 0.541 µM)	2 (≈ 2.16 µM)	>8	>8	2 (≈ 2.16 µM)	1 (≈ 1.08 µM)	0.5 (≈ 0.541 µM)	time to clear Candida yeast from the bloodstream (median) (Candida yeast): 2 days
0.5 (≈ 0.709 µM)	0.5 (≈ 0.709 µM)	0.25 (≈ 0.354 µM)	0.032 (≈ 0.0453 µM)	> 16	> 16	0.25 (≈ 0.354 µM)	0.5 (≈ 0.709 µM)	0.064 (≈ 0.0907 µM)	> 16	CCC(C)n1ncn(-c2ccc(N3CCN(c4ccc(OCC5COC(Cn6cncn6)(c6ccc(Cl)cc6Cl)O5)cc4)CC3)cc2)c1=O (centres unmarked) [ITR, itraconazole]	–	–	–	–	–	–	–	–	–	–	people with elevated alanine aminotransferase levels [11]: 4%
–	–	–	–	–	–	–	–	–	–	CCCCCCCC/C=C\CCCCCCCCOP(=O)([O-])OCC[N+](C)(C)C [OlPC, oleyl phosphocholine]	5 (≈ 11.5 µM)	10 (≈ 23.1 µM)	5 (≈ 11.5 µM)	2.5 (≈ 5.77 µM)	5 (≈ 11.5 µM)	5 (≈ 11.5 µM)	10 (≈ 23.1 µM)	5 (≈ 11.5 µM)	5 (≈ 11.5 µM)	2.5 (≈ 5.77 µM)	IC50 [12]: 2.31 µM; IC50 [13]: 2 µM; IC50 (Candida albicans): 7.89 µM; IC50 [14]: 8 µM; IC50 [15]: 8 µM; IC50 [16]: 7.77 µM; IC50 [17]: 2.55 µM; IC50 (Aspergillus fumigatus): 18.8 µM; IC50 (Sporothrix schenkii): 8.16 µM; IC50 [18]: 1.87 µM; IC50 (Microsporum canis): 1.66 µM; IC50 [19]: 1.97 µM; IC50 [20]: 8 µM; IC50 [21]: 2 µM; IC50 (Cryptococcus neoformans): 4.5 µM; IC50 (Trichophyton rubrum): 5.87 µM; IC50 [22]: 0.5 µM
0.25 (≈ 0.716 µM)	1 (≈ 2.86 µM)	0.5 (≈ 1.43 µM)	0.064 (≈ 0.183 µM)	16 (≈ 45.8 µM)	16 (≈ 45.8 µM)	0.5 (≈ 1.43 µM)	1 (≈ 2.86 µM)	0.125 (≈ 0.358 µM)	> 16	C[C@@H](c1ncncc1F)[C@](O)(Cn1cncn1)c1ccc(F)cc1F [VRZ, voriconazole]	–	–	–	–	–	–	–	–	–	–	–
